The supplement of paper PMC10307832

Assays:
Assay in all cases: relative viability (nuclei count vs DMSO), 5 days (fraction); higher = more cells survive
AZD8055 + Alpelisib = compound: COc1ccc(-c2ccc3c(N4CCOC[C@@H]4C)nc(N4CCOC[C@@H]4C)nc3n2)cc1CO [AZD8055] + Cc1nc(NC(=O)N2CCC[C@H]2C(N)=O)sc1-c1ccnc(C(C)(C)C(F)(F)F)c1 [Alpelisib] (partner 2 µM)
In short: (§1)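 Dosing by pin tool came one day after lung cancer cell lines were seeded in 1536-well plates, using either one drug or a fixed anchor-drug dose plus five library-drug doses (not always all listed) in √10 steps. After 5 days, nuclei were counted on 4× images. Relative viability is treated-well nuclei count divided by vehicle-well nuclei count, and values are medians of duplicate plates.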

AZD8055 + Linsitinib = compound: COc1ccc(-c2ccc3c(N4CCOC[C@@H]4C)nc(N4CCOC[C@@H]4C)nc3n2)cc1CO [AZD8055] + C[C@]1(O)C[C@@H](c2nc(-c3ccc4ccc(-c5ccccc5)nc4c3)c3c(N)nccn32)C1 [Linsitinib] (partner 1 µM)
In short: as §1

AZD8055 + Decitabine = compound: COc1ccc(-c2ccc3c(N4CCOC[C@@H]4C)nc(N4CCOC[C@@H]4C)nc3n2)cc1CO [AZD8055] + Nc1ncn([C@H]2C[C@H](O)[C@@H](CO)O2)c(=O)n1 [Decitabine] (partner 2 µM)
In short: as §1

AZD8055 + Pictilisib = compound: COc1ccc(-c2ccc3c(N4CCOC[C@@H]4C)nc(N4CCOC[C@@H]4C)nc3n2)cc1CO [AZD8055] + CS(=O)(=O)N1CCN(Cc2cc3nc(-c4cccc5[nH]ncc45)nc(N4CCOCC4)c3s2)CC1 [Pictilisib] (partner 1 µM)
In short: as §1

Cell Line | relative viability (AZD8055 + Alpelisib; first compound 0.01 µM) | relative viability (AZD8055 + Alpelisib; first compound 0.03162 µM) | relative viability (AZD8055 + Alpelisib; first compound 0.1 µM) | relative viability (AZD8055 + Alpelisib; first compound 0.3162 µM) | relative viability (AZD8055 + Alpelisib; first compound 1 µM) | relative viability (AZD8055 + Linsitinib; first compound 0.01 µM) | relative viability (AZD8055 + Linsitinib; first compound 0.03162 µM) | relative viability (AZD8055 + Linsitinib; first compound 0.1 µM) | relative viability (AZD8055 + Linsitinib; first compound 0.3162 µM) | relative viability (AZD8055 + Linsitinib; first compound 1 µM) | relative viability (AZD8055 + Decitabine; first compound 0.01 µM) | relative viability (AZD8055 + Decitabine; first compound 0.03162 µM) | relative viability (AZD8055 + Decitabine; first compound 0.1 µM) | relative viability (AZD8055 + Decitabine; first compound 0.3162 µM) | relative viability (AZD8055 + Decitabine; first compound 1 µM) | relative viability (AZD8055 + Pictilisib; first compound 0.01 µM) | relative viability (AZD8055 + Pictilisib; first compound 0.03162 µM) | relative viability (AZD8055 + Pictilisib; first compound 0.1 µM) | relative viability (AZD8055 + Pictilisib; first compound 0.3162 µM) | relative viability (AZD8055 + Pictilisib; first compound 1 µM)
NCI-H661 | 0.801 | 0.411 | 0.399 | 0.397 | 0.275 | 0.567 | 0.41 | 0.516 | 0.253 | 0.293 | 0.502 | 0.482 | 0.449 | 0.359 | 0.331 | 0.394 | 0.424 | 0.322 | 0.302 | 0.27
NCI-H1993 | 0.679 | 0.629 | 0.632 | 0.623 | 0.638 | 0.721 | 0.593 | 0.688 | 0.702 | 0.695 | 0.49 | 0.488 | 0.49 | 0.444 | 0.386 | 0.752 | 0.701 | 0.892 | 0.637 | 0.896
NCI-H1437 | 0.802 | 0.808 | 0.697 | 0.178 | 0.159 | 0.832 | 0.731 | 0.425 | 0.143 | 0.155 | 0.612 | 0.553 | 0.509 | 0.363 | 0.302 | 0.394 | 0.225 | 0.223 | 0.124 | 0.127
UMC-11 | 1.06 | 0.737 | 0.549 | 0.232 | 0.22 | 0.995 | 0.884 | 0.539 | 0.251 | 0.266 | 0.575 | 0.472 | 0.492 | 0.317 | 0.364 | 0.905 | 0.604 | 0.503 | 0.272 | 0.254
201T | 0.987 | 0.911 | 0.775 | 0.611 | 0.569 | 0.997 | 0.906 | 0.758 | 0.609 | 0.554 | 0.863 | 0.711 | 0.692 | 0.579 | 0.527 | 0.623 | 0.606 | 0.521 | 0.495 | 0.472
NCI-H358 | 0.714 | 0.786 | 0.75 | 0.295 | 0.216 | 0.728 | 0.561 | 0.429 | 0.209 | 0.236 | 0.22 | 0.24 | 0.177 | 0.134 | 0.113 | 0.334 | 0.301 | 0.233 | 0.222 | 0.245
LOU-NH91 | 0.705 | 0.669 | 0.556 | 0.537 | 0.511 | 0.889 | 0.835 | 0.629 | 0.585 | 0.524 | 0.85 | 0.809 | 0.72 | 0.577 | 0.615 | 0.546 | 0.542 | 0.512 | 0.478 | 0.491
HOP-62 | 1.26 | 1.18 | 0.667 | 0.434 | 0.26 | 1.09 | 0.789 | 0.869 | 0.362 | 0.266 | 0.193 | 0.213 | 0.239 | 0.215 | 0.194 | 0.878 | 0.534 | 0.582 | 0.246 | 0.259
NCI-H1915 | 1.12 | 0.941 | 0.996 | 0.645 | 0.455 | 1.19 | 0.977 | 1.08 | 0.837 | 0.558 | 0.272 | 0.251 | 0.258 | 0.254 | 0.244 | 0.879 | 0.715 | 0.851 | 0.706 | 0.487
NCI-H3122 | 0.737 | 0.541 | 0.34 | 0.309 | 0.251 | 0.995 | 0.823 | 0.547 | 0.384 | 0.299 | 0.442 | 0.341 | 0.3 | 0.149 | 0.129 | 0.549 | 0.47 | 0.337 | 0.272 | 0.29
NCI-H1651 | 1.04 | 0.716 | 0.671 | 0.405 | 0.325 | 0.845 | 0.796 | 0.689 | 0.305 | 0.282 | 0.69 | 0.319 | 0.481 | 0.416 | 0.347 | 0.664 | 0.452 | 0.433 | 0.257 | 0.283
NCI-H838 | 0.981 | 0.781 | 0.412 | 0.276 | 0.288 | 0.664 | 0.383 | 0.32 | 0.208 | 0.25 | 0.513 | 0.343 | 0.305 | 0.278 | 0.296 | 0.439 | 0.212 | 0.212 | 0.219 | 0.257
NCI-H596 | 0.479 | 0.385 | 0.348 | 0.348 | 0.324 | 0.991 | 0.792 | 0.457 | 0.386 | 0.395 | 1.06 | 0.841 | 0.698 | 0.571 | 0.528 | 0.341 | 0.363 | 0.32 | 0.308 | 0.337
SK-LU-1 | 1.03 | 0.643 | 0.384 | 0.687 | 0.342 | 0.941 | 0.798 | 0.877 | 0.491 | 0.321 | 0.64 | 0.547 | 0.568 | 0.422 | 0.343 | 0.525 | 0.395 | 0.327 | 0.28 | 0.298
NCI-H441 | 0.678 | 0.42 | 0.444 | 0.331 | 0.315 | 0.515 | 0.337 | 0.346 | 0.203 | 0.33 | 0.284 | 0.233 | 0.225 | 0.206 | 0.246 | 0.518 | 0.483 | 0.375 | 0.215 | 0.267
NCI-H650 | 0.968 | 0.834 | 0.695 | 0.385 | 0.385 | 0.889 | 0.575 | 0.556 | 0.342 | 0.293 | 0.35 | 0.278 | 0.333 | 0.29 | 0.275 | 0.905 | 0.736 | 0.623 | 0.307 | 0.304
